Measurements from patent US11865109B2 (NOVARTIS AG, priority 2019, dated 2024).
One block for each compound: values may come before it.

Assays:
Assay type in all cases: in vivo, human
[1] = ADME study: excretion/mass balance of radioactivity in urine and feces
Procedure: (§1) Six healthy male subjects of aged 18 to 55 years (inclusive) were included in this study.
(§2) All treatment administrations (Day 1 to Day 12) occurred approximately 30 minutes following consumption of a standardized meal. Treatments were administered with ˜240 mL water as 4×100 mg hard gelatin capsules. The radioactive release criteria was met and all the subjects were released from the study site on Day 14 afternoon.
(§3) The PK blood sample collection schedule was appropriate to characterize the PK of Compound 1 and any circulating major metabolites. The urine and feces collection schedule was set up adequately to ensure complete excretion of radioactivity. Due to the non-linear PK of Compound 1, the study was conducted at steady state.
[14C]-radioactivity data, which was based on LSC analyses, for excreta was used to calculate percentage of dose excreted via urine or feces as well as a total percent of dose recovered.
(§4) Profiles of radioactive metabolites in urine and feces pools representing more than 90% of total radioactivity in the collected excreta of individual subjects were specified as dose proportion (%) per metabolite.

[2] = ADME study: metabolite pattern analysis in plasma
Procedure: as §1, §2, §4
Pharmacokinetic samples were obtained and evaluated in all subjects. Compound 1 was determined in plasma by a validated liquid chromatography with tandem mass spectrometry (LC-MS/MS) method using electrospray ionization. A non-validated method was used to analyze metabolites of Compound 1.

[3] = ADME study: safety and tolerability; conditions: multiple-dose oral 400 mg Compound 1 and single oral 400 mg [14C]Compound 1, healthy subjects
Procedure: as §1, §2
(§5) Subjects who met the eligibility criteria were admitted to the study site approximately 24 hours prior to dosing for baseline evaluations. […] Safety assessments included physical examinations, electrocardiograms (ECGs), vital signs, standard clinical laboratory evaluations (hematology, blood chemistry, and urinalysis), AE and serious adverse event (SAE) monitoring.

[4] = ADME study: plasma PK of Compound 1 at steady state (LC-MS/MS)
Procedure: as §1
All treatment administrations (Day 1 to Day 12) occurred approximately 30 minutes following consumption of a standardized meal. Treatments were administered with ˜240 mL water as 4×100 mg hard gelatin capsules.
(§6) Pharmacokinetic samples were obtained and evaluated in all subjects.
The PK parameters were based on the actual recorded sampling times and non-compartmental method(s) with Phoenix WinNonLin (Version 6.4). The terminal rate constant (λz) was determined from automated (WinNonlin algorithm) linear regression of at least the last three points with non-zero concentrations in the terminal phase of the log-transformed concentration-time profile.

[5] = Relative bioavailability and food effect study, single oral dose of 450 mg, plasma PK of Compound 1
Excerpt: as §6

[6] = ADME study: PK of total radioactivity in blood and plasma (LSC); parameters: AUC (last), blood radioactivity / AUC (last), plasma radioactivity / AUC (inf), blood radioactivity: concentration or dose not given beside the values
Procedure: as §1
The study consisted of a 28-day screening period (including baseline period of 1 day) and 12 days of treatment period. The study design is depicted in FIG. 10.
as §2, §3, §5
Blood, plasma, urine, and feces samples were obtained and evaluated in all subjects. […] If the co-efficient of variation of replicate radioactivity measurements was >20%, the sample was re-homogenized and/or reanalyzed.
Single-dose blood and plasma PK parameters (Cmax, Tmax, AUClast and AUCinf), for total radioactivity were derived from plasma and blood concentration versus sampling time data. PK parameters were determined using non-compartmental method(s) with Phoenix WinNonLin (Version 6.4) for total radioactivity.

[7] = time period 0-216 h, mean, radioactivity after [14C]Compound 1
[8] = plasma time pools of N = 6 subjects, metabolite pattern analysis
[9] = male, human, oral, 400 mg, Day 5, 0-12 hours, steady state, mean of N = 6
[10] = blood, total radioactivity, mean of N = 6
[11] = single oral 400 mg [14C]Compound 1 at steady state

14C-Excretion, Feces [1, 7]: 5.2 % of dose
14C-Excretion, Urine [1, 7]: 92.3 % of dose
14C-Excretion, Total ([1]; time period 0-216 h, urine plus feces, mean, radioactivity after [14C]Compound 1): 97.6 % of dose
Compound 1 detected in urine ([1]; within 0-96 hours): 3.35 % of the dose
AUC(0-inf) ([2]; male, human, oral, 400 mg, plasma time pools of N = 6 subjects, AUCinf = AUClast + AUCt-inf): 22.7 µM·h
AUC(0-t) ([2]; male, human, oral, 400 mg, plasma time pools of N = 6 subjects, metabolite pattern analysis, linear trapezoidal method, read-out: AUC0-48 h in plasma): 22.1 µM·h
half-life ([2]; male, human, oral, 400 mg, plasma time pools of N = 6 subjects, metabolite pattern analysis, read-out: T½ in plasma (converted)): 11.2 h
Proportion of the plasma 14C-AUC0-48 h ([2]; metabolite pattern analysis, oral 400 mg [14C]Compound 1 at steady state): 18.5%
Extent of metabolism ([2]; oral 400 mg [14C]Compound 1 at steady state, humans): extensively metabolized
AUC0-48 h, percent of total radiolabeled components AUC0-48 h [2, 8]: 18.5%
AUCinf, percent of total radiolabeled components AUCinf [2, 8]: 17.5%
Tlast (range), plasma Compound 1 ([4]; Day 5, 0-12 hours): 12 h
AUC (% of 14C-AUCinf plasma), plasma Compound 1 ([4]; Day 5, 0-12 hours, mean of N = 6): 16.6 % of 14C-AUCinf plasma
CL/F ([4]; male, human, oral, 400 mg b.i.d., steady state, CV % 45.1%, read-out: Steady state plasma clearance (CLss/F), mean (converted)): 947 mL/min
Vd/F ([4]; male, human, oral, 400 mg b.i.d., steady state, CV % 48.1%, read-out: Apparent volume of distribution (Vz/F), mean): 335 L
Tmax ([4]; male, human, oral, 400 mg b.i.d., steady state, Day 5, range 1.0 hour-4.0 hours): 4 h
AUC(0-t) [4, 9]: 8170 ng·h/mL
Cmax [4, 9]: 1680 ng/mL
half-life ([5]; both sexes, human, plasma, single oral 450 mg, all fasted treatments): ~16 h
Food effect ([5]; single 450 mg dose, high-fat meal vs fasted): positive food effect
AUC (inf), blood radioactivity ([6]; blood, total radioactivity, AUCinf = AUClast + AUCt-inf, mean of N = 6): 27900 ng-eq·h/mL
Tlast (range), blood radioactivity ([6]; blood, total radioactivity, N = 6): 24 to 48 h
AUC (last), blood radioactivity ([6]; blood, total radioactivity, linear trapezoidal rule, mean of N = 6): 24700 ng-eq·h/mL
AUC % Extrap, blood radioactivity [6, 10]: 12.2 % of AUCinf
AUC (% of 14C-AUCinf plasma), blood radioactivity [6, 10]: 57.9 % of 14C-AUCinf plasma
Cmax, blood radioactivity ([6]; blood, total radioactivity, oral 400 mg [14C]Compound 1, mean of N = 6): 2670 ng-eq/mL
Tlast (range), plasma radioactivity ([6]; plasma, total radioactivity, N = 6): 48 to 96 h
AUC (last), plasma radioactivity ([6]; plasma, total radioactivity, linear trapezoidal rule, mean of N = 6): 45600 ng-eq·h/mL
AUC % Extrap, plasma radioactivity ([6]; plasma, total radioactivity, mean of N = 6): 5.74 % of AUCinf
Cmax, plasma radioactivity ([6]; plasma, total radioactivity, oral 400 mg [14C]Compound 1, mean of N = 6): 4280 ng-eq/mL
Fraction of total radioactivity in blood confined to the plasma compartment (Fp) [6, 11]: 93.3±3.35%
SMILES: COc1nc(C(=O)NC[C@](C)(O)C(F)(F)F)c(N)cc1C(F)(F)F [Compound 1, (S)-3-amino-6-methoxy-N-(3,3,3-trifluoro-2-hydroxy-2-methylpropyl)-5-(trifluoromethyl)picolinamide]
Safety and tolerability [3]: safe and well tolerated

Radioactivity in samples collected after 96 hours post-dose ([1]; after 96 hours post-dose of [14C]Compound 1): less than 3 % of the dose
Excretion of radioactivity, mean ([1]; after 9 days, range 93.4%-99.1%): 97.6%
Extent of oral absorption ([1]; oral 400 mg [14C]Compound 1 at steady state, N=6, range 89.7%-97.40%): 93.4%
Renal excretion of radioactivity (mainly in the form of metabolites) [1, 11]: 92.3±4.2 % of the dose
Radioactive dose recovered in feces and urine ([1]; within 96 hours): > 95 % of dose
Time post-dose up to which radioactivity was detected in blood [6, 11]: up to 48 hours
Time post-dose up to which radioactivity was detected in plasma [6, 11]: ≤ 96 h
SMILES: COc1nc(C(=O)NC[C@](C)(O)C(F)(F)F)c(N)cc1C(F)(F)F [[14C]Compound 1]
